US11739083B2, “Disposable sensor chip with reagent including 2-substituted benzothiazolyl-3-substituted phenyl-5-substituted sulfonated phenyl-2H-tetrazolium salt” (TERUMO KABUSHIKI KAISHA, priority 2016, dated 2023)
Converted amounts (≈) assume the structure as drawn.

Assays:
[1] = Maximum absorption wavelength (λmax) of formazan-nickel chelate by spectrophotometer; assay type: physicochemical; conditions: chelate of formazan and nickel ion, aqueous MOPS, cell length 10 mm, n=1
Procedure: 10 mM aqueous solution of MOPS was added to each of the formazan compounds so as to obtain a final concentration of […], and thereby 100 μL of a sample was produced. At this time, all of the samples were red-brown in color. Apart from this, a 1 M aqueous solution of nickel ion was produced.
For mixed solutions of various compounds in an aqueous solution of formazan and an aqueous solution of nickel, the spectra were measured with a spectrophotometer (measurement cell length: 10 mm) (n=1). Based on each of the spectra, the maximum absorption wavelength (λmax) (nm) of each of the compounds in formazan was determined. From FIG. 1, it is understood that the maximum absorption wavelength (λmax) of the chelate compound of formazan compound 1 and nickel ion is 630 nm.
The absorbance at the maximum absorption wavelength is denoted as 100%.

[2] = Evaluation of sensitivity (colour development with glucose, GDH-FAD, m-PMS, nickel; gradient versus WST-4); conditions: for Sensitivity, comparison with Comparative Example 5 (rating) / Sensitivity, comparison with Comparative Example 5 (ratio): gradientsample/gradientWST-4; for Sensitivity, comparison with Comparative Example 5 (rating): absorbance at λmax versus glucose concentration, cell length 50 μm
Procedure: Separately, 100 μL of RO water was added to 7 mg of a glucose dehydrogenase that uses flavin adenine dinucleotide (FAD) as a coenzyme (GDH-FAD) (manufactured by TOYOBO CO., LTD., product No.: GLD-351), the enzyme was dissolved, and thus a GDH solution was produced. Furthermore, 200 μL of RO water was added to 3.5 mg of 1-methoxy-5-methylphenazium methyl sulfate (m-PMS) (manufactured by DOJINDO LABORATORIES), and the compound was dissolved therein. Thus, an s-PMS solution was produced. 1 mL of RO water was added to 129 mg of nickel chloride to dissolve the salt, and thus a nickel solution was produced.
40 μL of the reaction solution was added to 10 μL each of an aqueous glucose solution at a concentration of 125 mg/dL, an aqueous glucose solution at a concentration of 250 mg/dL, and an aqueous glucose solution at a concentration of 1,000 mg/dL, and the mixtures were allowed to develop color. The spectra were measured with a spectrophotometer (measurement cell length: 50 μm) (n=1). […] Thus, the gradient (gradientsample) was determined.
40 μL of the control reaction solution was added to 10 μL each of an aqueous glucose solution at a concentration of 125 mg/dL, an aqueous glucose solution at a concentration of 250 mg/dL, and an aqueous glucose solution at a concentration of 1,000 mg/dL, and the mixtures were allowed to develop color. The spectra were measured with a spectrophotometer (measurement cell length: 50 μm) (n=1). For each of the spectra, the absorbance at 650 nm, which is the measurement wavelength (λmax) of WST-4, was measured, and the glucose concentration in the colored solution and the absorbance were plotted on the horizontal axis and the vertical axis, respectively. Thus, the gradient (gradientWST-4) was determined.
FIG. 2 is a graph showing the relationship between the glucose concentration and the absorbance of produced formazan in relation to the tetrazolium compound 1 and WST-4. […] Meanwhile, the gradient serves as an index for the color development intensity of each compound. Therefore, when the value obtained by dividing the gradientsample by the gradientWST-4 (gradientsample/gradientWST-4) is greater than one-fold, it is implied that the intensity of color development on the longer wavelength side is higher compared to WST-4, which is a well-known indicator reagent.

[3] = Evaluation of water-solubility (visual check for precipitate); assay type: physicochemical; conditions: RO water and 0.5 M MOPS pH 7.2, 200, 100, 20 mM, stirred 5 minutes; for solubility at 5 min: RO water / 0.5 M MOPS solution (1:1), aqueous buffer, thermodynamic from solid
Procedure: After the mixture was stirred for 5 minutes, a precipitate was checked by visual inspection. […] After the mixture was stirred for 5 minutes, a precipitate was checked by visual inspection. […] After the mixture was stirred for 5 minutes, a precipitate was checked by visual inspection.

[4] = Evaluation of stability (absorbance increase of measurement solution over 6 hours); conditions: FIG. 3; absorbance increase per hour over 6 hours
Procedure: To 0.02 mmol of each compound, 75 μL of RO water and 100 μL of a 0.5 M MOPS solution (pH 7.2) were added, and the compound was dissolved therein. The solution was used as a sample.
To 175 μL of this sample, 10 μL of the GDH solution, 5 μL of the m-PMS solution, and 10 μL of the nickel solution, all of which had been produced in the same manner as in the above section (Evaluation of sensitivity), were added, and thereby a measurement solution was produced.
As a control, 85 μL of RO water and 100 μL of a 0.5 M MOPS solution (pH 7.2) were added to 11.6 mg of 2-benzothiazolyl-3-(4-carboxy-2-methoxyphenyl)-5-[4-(2-sulfoethylcarbamoyl)phenyl]-2H-tetrazolium (WST-4), and the compound was dissolved. Thus, a control sample was produced. […] Thus, a control reaction solution was produced.
At the time of production of the measurement solution (0 hour), and after 1 hour, 2 hours, and 6 hours from the production, the spectra of the measurement solutions produced as described above were measured using a spectrophotometer (measurement cell length: 50 μm) (n=1). For each spectrum, the absorbance at the maximum absorption wavelength (λmax) of each compound as determined above was measured. The absorbances measured at the time of production of the measurement solution (0 hour) and after 6 hours from the production were designated as Abs0 h and Abs6 h, respectively. […]

Compound | Maximum absorption wavelength (λmax) [1] | solubility at 5 min [3] | [(Abs6 h−Abs0 h)/6] value [4] | Sensitivity, comparison with Comparative Example 5 (rating) [2] | gradient (absorbance versus glucose concentration) ([2]; FIG. 2, compound 1 at its λmax with nickel, WST-4 at 650 nm without nickel) | Sensitivity, comparison with Comparative Example 5 (ratio) [2] | Water-solubility [3]
2-benzothiazolyl-3-(4-carboxy-2-methoxyphenyl)-5-[4-(2-sulfoethylcarbamoyl)phenyl]-2H-tetrazolium [Comparative Example 5, reference compound] | No chelation | – | about 0.01 | – | 0.0026 | 1 times | ◯ (a precipitate was seen in the 200 mM aqueous solution, but there was no precipitate in the 100 mM aqueous solution)
COc1ccc(S(=O)(=O)O)cc1-[n+]1nc(-c2ccc(S(=O)(=O)O)cc2S(=O)(=O)[O-])nn1-c1nc2ccccc2s1 [Comparative Example 1, reference compound] | 580 nm | 100 to 200 mM (≈ 62.6 to 125 mg/mL) | – | Δ (the value of the ratio gradientsample/gradientWST-4 was greater than 1 and less than 1.5) | – | – | –
COc1ccc2nc(-n3nc(-c4ccc(S(=O)(=O)O)cc4S(=O)(=O)O)n[n+]3-c3cc(S(=O)(=O)[O-])c([N+](=O)[O-])cc3OC)sc2c1 [Example 3] | 630 nm | > 200 mM | – | ◯ (the value of the ratio gradientsample/gradientWST-4 was 1.5 or greater and less than 2) | – | – | –
COc1ccc2nc(-n3nc(-c4ccc(O)c(S(=O)(=O)[O-])c4)n[n+]3-c3cc(S(=O)(=O)[O-])ccc3OC)sc2c1.[Na+] [Example 6] | 650 nm | 20 to 100 mM | – | ⊙ (gradientsample/gradientWST-4) was 2 or greater) | – | – | –
COc1ccc2nc(-n3nc(-c4ccc(O)cc4S(=O)(=O)[O-])n[n+]3-c3cc(S(=O)(=O)[O-])ccc3OC)sc2c1.[Na+] [Example 5] | 630 nm | 100 to 200 mM | – | ◯ (the value of the ratio gradientsample/gradientWST-4 was 1.5 or greater and less than 2) | – | – | –
COc1ccc2nc(-n3nc(-c4cc(S(=O)(=O)O)cc(S(=O)(=O)O)c4)n[n+]3-c3ccc(OC)c(S(=O)(=O)[O-])c3)sc2c1 [Example 9] | 640 nm | > 200 mM | – | ◯ (the value of the ratio gradientsample/gradientWST-4 was 1.5 or greater and less than 2) | – | – | –
COc1ccc2nc(-n3nc(-c4ccc(S(=O)(=O)[O-])cc4S(=O)(=O)[O-])n[n+]3-c3ccc([N+](=O)[O-])cc3OC)sc2c1.[Na+] [Example 4] | 650 nm | 20 to 100 mM | – | ⊙ (gradientsample/gradientWST-4) was 2 or greater) | – | – | –
COc1ccc2nc(-n3nc(-c4ccccc4S(=O)(=O)[O-])n[n+]3-c3ccc(S(=O)(=O)[O-])cc3)sc2c1.[Na+] [Example 7] | 645 nm | 100 to 200 mM | – | ⊙ (gradientsample/gradientWST-4) was 2 or greater) | – | – | –
COc1ccc2nc(-n3nc(-c4cc(S(=O)(=O)[O-])cc(S(=O)(=O)O)c4)n[n+]3-c3cc(S(=O)(=O)O)ccc3OC)sc2c1 [Example 8] | 620 nm | > 200 mM | – | ◯ (the value of the ratio gradientsample/gradientWST-4 was 1.5 or greater and less than 2) | – | – | –
COc1ccc2nc(-n3nc(-c4ccc(S(=O)(=O)O)cc4S(=O)(=O)[O-])n[n+]3-c3cc(S(=O)(=O)O)ccc3OC)sc2c1 [Example 2] | 600 nm | > 200 mM | – | ⊙ (gradientsample/gradientWST-4) was 2 or greater) | – | – | –
COc1ccc2nc(-n3nc(-c4ccc(S(=O)(=O)O)cc4S(=O)(=O)[O-])n[n+]3-c3ccc(C(=O)O)cc3OC)sc2c1 [Example 10] | 620 nm | > 200 mM | – | ◯ (the value of the ratio gradientsample/gradientWST-4 was 1.5 or greater and less than 2) | – | – | –

The next lines start with results.

Maximum absorption wavelength (λmax) [1] | solubility at 5 min [3] | [(Abs6 h−Abs0 h)/6] value [4] | Compound | Sensitivity, comparison with Comparative Example 5 (rating) [2] | gradient (absorbance versus glucose concentration) ([2]; FIG. 2, compound 1 at its λmax with nickel, WST-4 at 650 nm without nickel) | Sensitivity, comparison with Comparative Example 5 (ratio) [2] | Water-solubility [3]
580 nm | 100 to 200 mM (≈ 54.6 to 109 mg/mL) | – | COc1ccccc1-[n+]1nc(-c2ccc(S(=O)(=O)O)cc2S(=O)(=O)[O-])nn1-c1nc2ccccc2s1 [compound 4, reference compound] | ⊙ (gradientsample/gradientWST-4) was 2 or greater) | – | – | –
605 nm | > 200 mM | – | COc1ccc2nc(-n3nc(-c4cc(S(=O)(=O)[O-])cc(S(=O)(=O)O)c4)n[n+]3-c3cc(C(=O)O)ccc3OC)sc2c1 [Example 11] | ◯ (the value of the ratio gradientsample/gradientWST-4 was 1.5 or greater and less than 2) | – | – | –
650 nm | > 200 mM | – | COc1ccc(-[n+]2nc(-c3ccc(S(=O)(=O)O)cc3S(=O)(=O)O)nn2-c2nc3cc4c(cc3s2)OCO4)cc1S(=O)(=O)[O-] [Example 17] | ⊙ (gradientsample/gradientWST-4) was 2 or greater) | – | 2.4 times | –
625 nm | > 200 mM | – | COc1ccc(S(=O)(=O)O)cc1-[n+]1nc(-c2ccc(S(=O)(=O)O)cc2S(=O)(=O)[O-])nn1-c1nc2cc3c(cc2s1)OCO3 [Example 13] | ⊙ (gradientsample/gradientWST-4) was 2 or greater) | – | 2.4 times | –
640 nm | > 200 mM | – | COc1ccc(-[n+]2nc(-c3ccc(S(=O)(=O)O)cc3S(=O)(=O)O)nn2-c2nc3cc4c(cc3s2)OCCO4)cc1S(=O)(=O)[O-] [Example 19] | ⊙ (gradientsample/gradientWST-4) was 2 or greater) | – | 2.4 times | –
610 nm | > 200 mM | – | COc1ccc(S(=O)(=O)O)cc1-[n+]1nc(-c2ccc(S(=O)(=O)O)cc2S(=O)(=O)[O-])nn1-c1nc2cc3c(cc2s1)OCCO3 [Example 14] | ⊙ (gradientsample/gradientWST-4) was 2 or greater) | – | 2.4 times | –
630 nm | > 200 mM | – | COc1ccc2nc(-n3nc(-c4ccc(S(=O)(=O)O)cc4S(=O)(=O)[O-])n[n+]3-c3ccc(OC)c(C(=O)O)c3)sc2c1 [Example 12] | ⊙ (gradientsample/gradientWST-4) was 2 or greater) | – | 2.4 times | –
630 nm | > 200 mM | – | CCOc1ccc2nc(-n3nc(-c4ccc(S(=O)(=O)O)cc4S(=O)(=O)O)n[n+]3-c3ccc(OC)c(S(=O)(=O)[O-])c3)sc2c1 [Example 20] | ⊙ (gradientsample/gradientWST-4) was 2 or greater) | – | 2.4 times | –
